Data taken from paper PMC5442262, “Catechol glucosides act as donor/acceptor substrates of glucansucrase enzymes of Lactobacillus reuteri” (Applied Microbiology and Biotechnology, 2017).

How the values were obtained:
Type in all cases: biochemical
[1] = molecular target: T1, Gtf180-ΔN (Limosilactobacillus reuteri, UniProt Q5SBN3); test: MALDI-TOF-MS of products; settings: 100 mM catG1, 24 h; 25 mM sodium acetate pH 4.7, 1 mM CaCl2, 37 °C; donor and acceptor
T1 construct: recombinant, N-terminally truncated (ΔN)

[2] = molecular target: T2, GtfML1-ΔN (Limosilactobacillus reuteri, UniProt Q5SBN0); test: MALDI-TOF-MS of products; settings: 100 mM catG1, 24 h; 25 mM sodium acetate pH 4.7, 1 mM CaCl2, 37 °C; donor and acceptor
T2 construct: recombinant, N-terminally truncated (ΔN); also printed GtfMLI-ΔN

[3] = molecular target: T1, Gtf180-ΔN; test: NP-HPLC of substrate decrease; 1H NMR of products; settings: 100 mM cat^6G2; 25 mM sodium acetate pH 4.7, 1 mM CaCl2, 37 °C; donor and acceptor

T1 sequence (Q5SBN3 entry or part of it, stated change not applied): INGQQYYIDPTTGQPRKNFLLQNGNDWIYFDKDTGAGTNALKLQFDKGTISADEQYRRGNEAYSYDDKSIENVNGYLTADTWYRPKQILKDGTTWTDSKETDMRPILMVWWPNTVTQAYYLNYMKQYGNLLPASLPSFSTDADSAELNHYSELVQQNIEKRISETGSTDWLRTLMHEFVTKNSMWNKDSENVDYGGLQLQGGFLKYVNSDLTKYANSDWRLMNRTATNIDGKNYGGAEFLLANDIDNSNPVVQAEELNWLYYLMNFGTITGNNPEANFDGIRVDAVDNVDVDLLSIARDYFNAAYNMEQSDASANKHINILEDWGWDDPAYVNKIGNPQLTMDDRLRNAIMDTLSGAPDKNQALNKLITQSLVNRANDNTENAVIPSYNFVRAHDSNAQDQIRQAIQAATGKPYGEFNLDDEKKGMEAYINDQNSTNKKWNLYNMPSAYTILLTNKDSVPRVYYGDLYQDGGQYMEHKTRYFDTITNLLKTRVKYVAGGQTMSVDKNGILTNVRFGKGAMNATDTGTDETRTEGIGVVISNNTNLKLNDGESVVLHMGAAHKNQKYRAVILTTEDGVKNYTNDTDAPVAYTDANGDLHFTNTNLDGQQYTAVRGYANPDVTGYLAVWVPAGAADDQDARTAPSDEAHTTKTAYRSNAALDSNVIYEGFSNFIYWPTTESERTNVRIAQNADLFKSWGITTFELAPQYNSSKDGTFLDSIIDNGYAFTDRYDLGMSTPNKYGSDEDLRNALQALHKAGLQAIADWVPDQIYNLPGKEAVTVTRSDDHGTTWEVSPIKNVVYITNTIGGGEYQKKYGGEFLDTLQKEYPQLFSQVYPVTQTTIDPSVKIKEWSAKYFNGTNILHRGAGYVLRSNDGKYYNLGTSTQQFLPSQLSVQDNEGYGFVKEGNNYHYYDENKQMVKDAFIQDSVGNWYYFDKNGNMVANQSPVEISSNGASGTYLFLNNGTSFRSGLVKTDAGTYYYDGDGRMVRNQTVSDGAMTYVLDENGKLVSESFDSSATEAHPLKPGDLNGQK
T2 sequence (Q5SBN0 entry or part of it, stated change not applied): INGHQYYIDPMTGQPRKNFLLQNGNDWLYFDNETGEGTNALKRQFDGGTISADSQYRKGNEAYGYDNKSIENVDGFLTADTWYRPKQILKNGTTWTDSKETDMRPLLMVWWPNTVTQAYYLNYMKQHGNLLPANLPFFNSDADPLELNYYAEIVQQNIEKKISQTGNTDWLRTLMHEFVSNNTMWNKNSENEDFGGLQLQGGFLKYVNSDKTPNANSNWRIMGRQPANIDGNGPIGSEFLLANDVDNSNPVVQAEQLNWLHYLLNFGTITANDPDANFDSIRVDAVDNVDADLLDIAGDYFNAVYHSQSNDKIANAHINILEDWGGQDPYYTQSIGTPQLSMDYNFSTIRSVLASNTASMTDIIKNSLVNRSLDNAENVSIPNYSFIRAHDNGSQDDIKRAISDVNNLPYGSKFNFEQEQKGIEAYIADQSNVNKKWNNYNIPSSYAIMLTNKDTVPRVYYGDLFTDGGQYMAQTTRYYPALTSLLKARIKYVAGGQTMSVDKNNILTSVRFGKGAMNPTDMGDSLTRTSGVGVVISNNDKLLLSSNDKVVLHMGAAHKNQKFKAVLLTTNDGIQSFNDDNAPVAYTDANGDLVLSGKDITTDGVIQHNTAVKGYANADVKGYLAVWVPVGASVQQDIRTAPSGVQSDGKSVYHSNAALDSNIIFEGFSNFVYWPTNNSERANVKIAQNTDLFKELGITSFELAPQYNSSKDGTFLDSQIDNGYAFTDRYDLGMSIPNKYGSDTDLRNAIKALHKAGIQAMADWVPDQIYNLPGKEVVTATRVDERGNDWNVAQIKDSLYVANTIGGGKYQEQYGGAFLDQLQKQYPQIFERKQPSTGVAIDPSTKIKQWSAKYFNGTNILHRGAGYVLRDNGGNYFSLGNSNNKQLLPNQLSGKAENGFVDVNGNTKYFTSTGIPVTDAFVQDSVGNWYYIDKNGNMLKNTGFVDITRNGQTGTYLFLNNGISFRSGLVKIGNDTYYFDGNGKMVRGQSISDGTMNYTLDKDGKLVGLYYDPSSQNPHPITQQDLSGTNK

| Compound | MALDI-TOF-MS of products [1] | MALDI-TOF-MS of products [2] | NP-HPLC of substrate decrease; 1H NMR of products [3] |
| --- | --- | --- | --- |
| OC[C@H]1O[C@H](Oc2ccccc2O)[C@H](O)[C@@H](O)[C@@H]1O [catG1] | Gtf180-ΔN and GtfMLI-ΔN glucansucrase enzymes also were able to use catG1 as glucosyl donor | Gtf180-ΔN and GtfMLI-ΔN glucansucrase enzymes also were able to use catG1 as glucosyl donor |  |
| OC[C@H]1O[C@H](OC[C@H]2O[C@H](Oc3ccccc3O)[C@H](O)[C@@H](O)[C@@H]2O)[C@H](O)[C@@H](O)[C@@H]1O [cat^6G2] |  |  | Gtf180-ΔN used both cat^3G2 and cat^6G2 as donor/acceptor substrates |
